Measurements: patent US10251874B2, “Crystalline forms of a JAK inhibitor compound” (THERAVANCE BIOPHARMA R&D IP, LLC, priority 2017, dated 2019)
Read-outs that look alike come from different tables or passages of the source.

What was measured:
Assay type in all cases: cell-based
[1] = test system: IL-4 stimulated pSTAT6 in CD3+ T cells; assay: Assay 5: Inhibition of IL-4 stimulated pSTAT6 in CD3+ T cells; conditions: T-cell; CD3+ T cells in human PBMCs, flow cytometry; read-out: pIC50, inhibition of IL-4 stimulated pSTAT6 (converted)
Experimental: The potency of the test compound for inhibition of interleukin-4 (IL-4) stimulated STAT6 phosphorylation was measured in CD3-positive (CD3+) T cells in human peripheral blood mononuclear cells (PBMCs) isolated from human whole blood (Stanford Blood Center) using flow cytometry. Because IL-4 signals through JAK, this assay provides a measure of JAK cellular potency.
CD3+ T cells were identified using a […] (PE) conjugated anti-CD3 antibody (Clone UCHT1, BD Biosciences), while an Alexa Fluor 647 conjugated anti-pSTAT6 antibody (pY641, Clone 18/P, BD Biosciences) was used to detect STAT6 phosphorylation.
Human peripheral blood mononuclear cells (PBMC) were isolated from human whole blood of healthy donors as in Assays 3 and 4. […] After incubation, cells were washed twice in FACS buffer before being analyzed using a LSRII flow cytometer (BD Biosciences).
To determine the inhibitory potency of the test compound in response to IL-4, the median fluorescent intensity (MFI) of pSTAT6 was measured in CD3+ T cells. IC50 values were determined from analysis of the inhibition curves of MFI vs compound concentration. Data are expressed as pIC50 (negative decadic logarithm IC50).

[2] = test system: IL-2, IL-4, IL-6, and IFNγ signaling; assay: Cellular assays of Assays 3 to 7 (summary statement); conditions: Homo sapiens, summary over cellular Assays 3 to 7
[3] = test system: IL-27 induced CXCL10 secretion in EpiAirway tissue cultures; assay: Assay 15: IL-27 induced CXCL10 in human 3D airway cultures; conditions: 192 h, Day 8, average from 3 or 4 donors, read-out: % inhibition of IL-27 induced CXCL10 secretion (±STDV)
Experimental: EpiAirway tissue cultures were obtained from Mattek (AIR-100). Cultures were derived from asthmatic donors. In a cell culture insert, human derived tracheal/bronchial epithelial cells were grown and differentiated on a porous membrane support, allowing an air-liquid interface with warmed culture medium below the cells and a gaseous test atmosphere above. Tissues were cultured in maintenance media (Mattek, AIR-100-MM) in a 37° C., 5% CO2 humidified incubator. Four donors were tested. On Day 0, tissue cultures were treated with test compounds at 10 μM, 1 μM and/or 0.1 μM. Compounds were diluted in dimethyl sulfoxide (DMSO, Sigma) to a final concentration of 0.1%. DMSO at 0.1% was used as a vehicle control. Test compounds were incubated with cultures for 1 hour at 37° C., 5% CO2, followed by the addition of pre-warmed media containing IFNγ (R&D Systems) or IL-27 (R&D Systems) at a final concentration at 100 ng/ml. Tissue cultures were maintained for 8 days. Media was replaced every 2 days with fresh media containing compounds and IFNγ or IL-27. On Day 8, tissue cultures and supernatants were collected for analysis. Supernatant samples were assayed for CXCL10 (IP-10) and CXCL9 (MIG) using luminex analysis (EMD Millipore). Data is expressed as % Inhibition +/−standard deviation (±STDV). Percent inhibition was determined by compound inhibitory potency against IFNγ or IL-27 induced CXCL10 or CXCL9 secretion compared to vehicle treated cells. Data is the average from 3 or 4 donors. Compound 1 was able to inhibit IFNγ induced CXCL10 secretion by 99%±2.0 (at 10 μM), 71%±19 (at […]) and 17%±12 (at 0.1 μM) when compared to vehicle control. Compound 1 was able to inhibit IFNγ induced CXCL9 secretion by 100%±0.3 (at 10 μM), 99%±0.9 (at 1 μM) and 74%±17 (at 0.1 μM) when compared to vehicle. […] Compound 1 was able to inhibit IL-27 induced CXCL9 secretion by 100%±0 (at 10 μM), 95%±3.7 (at 1 μM) and 75%±3.5 (at 0.1 μM) when compared to vehicle control.

Compound: CCc1cc(O)c(F)cc1-c1ccc2c(-c3nc4c([nH]3)CCN(C3CCN(C)CC3)C4)n[nH]c2c1 [Compound 1, 5-ethyl-2-fluoro-4-(3-(5-(1-methylpiperidin-4-yl)-4,5,6,7-tetrahydro-1H-imidazo[4,5-c]pyridin-2-yl)-1H-indazol-6-yl)phenol]
- IC50 [1]: 7.94 nM
- IC50 ([2]; read-out: IC50 for inhibition of IL-2, IL-4, IL-6, and IFNγ signaling): ≤ 200 nM
- IC50 ([2]; read-out: pIC50 for inhibition of IL-2, IL-4, IL-6, and IFNγ signaling (converted)): ≤ 200 nM
- inhibition at 0.1 µM ([3]; at 0.1 μM): 73%
- inhibition at 1 µM ([3]; at 1 μM): 98%
- inhibition at 10 µM ([3]; at 10 μM): 108%
